In US20050020576A1, “Kappa agonist compounds and pharmaceutical formulations thereof” (priority 1996, published 2005):
Where “and” joins values, the source holds several entries; their conditions need not be identical. Identical values can stand only once.

What was measured:
[1] = target: T1, cloned human kappa receptor (Homo sapiens, UniProt P41145); experiment: biochemical; type: binding; conditions: for Ki: nM 3H-Diprenorphin
[2] = target: T1, cloned human kappa receptor; experiment: [3H]U69593 (agonist) binding to the cloned human kappa receptor; conditions: Ki, nM 3H-U-69,593
[3] = tested on: formalin-induced flinching; experiment: animal or person; type: in vivo, male Sprague-Dawley rats; conditions: rat, in vivo

T1 sequence (P41145 whole entry): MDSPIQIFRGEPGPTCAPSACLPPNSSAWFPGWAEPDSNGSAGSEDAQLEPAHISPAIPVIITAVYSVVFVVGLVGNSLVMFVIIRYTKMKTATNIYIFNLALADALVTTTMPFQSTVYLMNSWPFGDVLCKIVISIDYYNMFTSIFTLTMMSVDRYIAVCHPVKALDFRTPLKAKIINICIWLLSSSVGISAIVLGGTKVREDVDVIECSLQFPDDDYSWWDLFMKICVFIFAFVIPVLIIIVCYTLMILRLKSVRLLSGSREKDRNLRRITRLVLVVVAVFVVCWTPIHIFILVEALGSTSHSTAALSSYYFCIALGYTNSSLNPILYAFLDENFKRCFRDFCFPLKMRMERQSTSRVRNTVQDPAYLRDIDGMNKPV

SMILES	Ki [1]	Ki [2]	Late Phase Formalin, % @ 300; i.paw [3] [% @ 300]	melting point	inhibition at 1 µM ([1]; read-out: 3H-Diprenorphin, % @ 1 uM) [%]	Late Phase Formalin A50 (mg); i.paw [3]
Cl.O=C(Cc1ccc(Cl)c(Cl)c1)N1CCN(Cc2ccccc2)C[C@H]1CN1CCCC1 [(R-1), (R)-4-(Phenylmethyl)-1-[(3,4-dichlorophenyl)acetyl]-2-[(1-pyrrolidinyl)methyl]piperazine hydrochloride]	57 nM and 38 nM	9.3 nM	53	168 to 170 °C		
Cl.O=CN1CCN(C(=O)Cc2ccc(Cl)c(Cl)c2)[C@H](CN2CCCC2)C1 [(R-3j), (R)-4-[(3,4-Dichlorophenyl)acetyl]-3-[(1-pyrrolidinyl)methyl]-1-piperazinecarboxaldehyde hydrochloride]		0.4 nM	65	126 °C (dec.)	96	
CC(=O)N1CCN(C(=O)Cc2ccc(Cl)c(Cl)c2)[C@H](CN2CCCC2)C1.Cl [(R-3f), (R)-4-Acetyl-1-[(3,4-dichlorophenyl)acetyl]-2-[(1-pyrrolidinyl)methyl]-piperazine hydrochloride]	4.2 nM and 1.4 nM	0.11 nM and 0.14 nM	95	153 to 155 °C		
CS(=O)(=O)N1CCN(C(=O)Cc2ccc(Cl)c(Cl)c2)[C@H](CN2CCCC2)C1.Cl [(R-3a), (R)-4-Methanesulfonyl-1-[(3,4-dichlorophenyl)acetyl]-2-[(1-pyrrolidinyl)methyl]-piperazine hydrochloride]	0.2 nM and 1.3 nM	0.19 nM and 0.5 nM		130 to 132 °C		14 (5.6-29) mg
